Results taken from patent US11517508B2, “Composition for single-paste type hydraulic endodontic filling material comprising dimethyl sulfoxide” (MARUCHI, priority 2016, dated 2022).

System: MC3T3-E1 cells
Assay: Cytotoxicity test (MTT) of solvents, material extracts on MC3T3-E1 cells
Type: cell-based
Settings: p<0.05, FIG. 1
Procedure: FIG. 1 is a graph of a cytotoxicity test according to one embodiment of the invention. The test will be described with reference to FIG. 1.
A: NMP, B: DMSO, C: DEGEE, and D: DMSO 80%+DEGEE 20%
Cytotoxicity was measured with respect to the above four kinds of solvents by the following method:
(i) A specimen was placed in a mold with a thickness of 2 mm and a diameter of 10 mm, and hardened in an incubator at 37° C. for 3 days. (ii) A material extract was derived by filling the hardened specimen with a medium at a surface area/medium ratio of 0.5 cm^2 per ml and incubating it at 37° C. for 3 days. (iii) 1.5×10^4 MC3T3-E1 cells were seeded per well on a 24-well culture plate and incubated for 24 hours, and then the medium was sucked off. 1 ml of the material extract was placed in each well and set in triplicate. (iv) The material extracts were incubated for 24 hours, 48 hours and 72 hours, respectively, and then the medium was discarded. The material extracts were treated with 200 μl of 0.05% MTT solution, wrapped in aluminum foil, and reacted in the incubator at 37° C. for 2 hours. (v) 200 μl of DMSO was added after the reaction. Then, 200 μl of the reaction solution was transferred to each well in a 96-well plate and absorbance was measured at 590 nm.

[1] = all tests and all times (24, 48, 72 hours), compared with NMP groups

CCOCCOCCO [DEGEE, diethylene glycol monoethyl ether, reference compound] was tested, and the cell survival rate [1] was “higher cell survival rate than groups for which NMP was used as a solvent”.
In the case of C[S+](C)[O-] [DMSO, dimethyl sulfoxide], the cell survival rate (48 hours and 72 hours, comparison between solvent groups) is reported as “significantly higher cell survival rate than groups for which DEGEE and a mixture of DMSO and DEGEE were used as solvents” and the cell survival rate [1] is reported as “higher cell survival rate than groups for which NMP was used as a solvent”.
